Results on one compound are retold here after patent US20240158384A1, “CB2 RECEPTOR AGONISTS” (The Board of Trustees of the Leland Stanford Junior …, priority 2020, published 2024).

In one data set the test system is DA response to reward. Nature of the data set: GRAB-DA fiber photometry during operant task for sucrose reward. The note with it: injected 30 min before task, n=3, vs vehicle. The format is in vivo, mouse. Here is the method: In a second experiment, the same mice (n=3) were trained to nose poke a dedicated port to gain access to sucrose reward. During the task, GRAB-DA was used to measure DA release in response to reward. After ˜2 weeks of training, the effect of Compound 22 vs. vehicle on the DA response to reward was examined. On the first day, either drug or vehicle was injected followed by waiting 30 min, and then recording DA during the task. The order of drug vs. vehicle was counterbalanced between mice. […] Thus, Compound 22 appears to be capable of modulating both spontaneous and reward-related DA release.

The target in a further data set is T1, human CB1R (Homo sapiens, UniProt P21554).
T1 construct: host or cells: CHO cells
T1 sequence (P21554 whole entry): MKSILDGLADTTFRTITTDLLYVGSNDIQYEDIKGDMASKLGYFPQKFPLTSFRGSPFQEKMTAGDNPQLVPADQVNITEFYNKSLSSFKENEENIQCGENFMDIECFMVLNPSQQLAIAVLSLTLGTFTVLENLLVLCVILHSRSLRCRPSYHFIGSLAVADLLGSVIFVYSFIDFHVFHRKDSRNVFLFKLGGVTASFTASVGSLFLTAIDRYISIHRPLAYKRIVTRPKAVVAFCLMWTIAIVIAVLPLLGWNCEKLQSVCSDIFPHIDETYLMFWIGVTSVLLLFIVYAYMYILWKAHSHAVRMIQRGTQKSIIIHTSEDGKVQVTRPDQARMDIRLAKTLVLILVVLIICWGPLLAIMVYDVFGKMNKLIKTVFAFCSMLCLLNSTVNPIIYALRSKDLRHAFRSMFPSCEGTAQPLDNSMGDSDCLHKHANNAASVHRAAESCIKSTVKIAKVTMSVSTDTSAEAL
The experiment in a line: cAMP Hunter eXpress GPCR assay, human CB1: inhibition of forskolin-stimulated cAMP in CHO cells. The format is cell-based. Here is the method: Briefly, cAMP Hunter eXpress Cells were seeded 18-24 h prior to the in a 96-well tissue culture treated assay plate and incubated in 5% CO2 at 37° C. in a humidified incubator. After removal of cell media, agonist compound and forskolin prepared in cell assay buffer was added and incubated at 37° C. The CB1 cAMP assay was stimulated with 20 μM final concentration of forskolin with 40 minutes incubation time. The CB2 cAMP assay was stimulated with 25 μM final concentration of forskolin with 35 minutes incubation time. The assay was stopped by incubation with antibody and working solution for 1 h at room temperature. After over 3 h incubation at room temperature in the dark with enzyme acceptor solution, chemiluminescence was measured on a CLARIOstar plate reader (BMG LABTECH Inc., Cary, NC, USA).

In a further data set the test system is Neurons/Microglia. The experiment in a line: Cytotoxicity (Neurons/Microglia). The format is cell-based. As for the experimental part: (§1) Detailed characterization data was collected for Compound 22. Primary assays were carried out according to Examples 2 and 3, while other assays were carried out according to standard methods.
For data set [1], the system named is Male C57Bl6J mice. Nature of the data set: Spontaneous locomotor activity in activity chamber. In kind it is in vivo, mouse. The following applies: mice, compound alone i.p., 90 minutes after dosing, vs vehicle.
A further data set deals with hERG (Homo sapiens, UniProt Q12809). Nature of the data set: hERG activity. As for the experimental part: as §1
hERG, sequence (Q12809 whole entry): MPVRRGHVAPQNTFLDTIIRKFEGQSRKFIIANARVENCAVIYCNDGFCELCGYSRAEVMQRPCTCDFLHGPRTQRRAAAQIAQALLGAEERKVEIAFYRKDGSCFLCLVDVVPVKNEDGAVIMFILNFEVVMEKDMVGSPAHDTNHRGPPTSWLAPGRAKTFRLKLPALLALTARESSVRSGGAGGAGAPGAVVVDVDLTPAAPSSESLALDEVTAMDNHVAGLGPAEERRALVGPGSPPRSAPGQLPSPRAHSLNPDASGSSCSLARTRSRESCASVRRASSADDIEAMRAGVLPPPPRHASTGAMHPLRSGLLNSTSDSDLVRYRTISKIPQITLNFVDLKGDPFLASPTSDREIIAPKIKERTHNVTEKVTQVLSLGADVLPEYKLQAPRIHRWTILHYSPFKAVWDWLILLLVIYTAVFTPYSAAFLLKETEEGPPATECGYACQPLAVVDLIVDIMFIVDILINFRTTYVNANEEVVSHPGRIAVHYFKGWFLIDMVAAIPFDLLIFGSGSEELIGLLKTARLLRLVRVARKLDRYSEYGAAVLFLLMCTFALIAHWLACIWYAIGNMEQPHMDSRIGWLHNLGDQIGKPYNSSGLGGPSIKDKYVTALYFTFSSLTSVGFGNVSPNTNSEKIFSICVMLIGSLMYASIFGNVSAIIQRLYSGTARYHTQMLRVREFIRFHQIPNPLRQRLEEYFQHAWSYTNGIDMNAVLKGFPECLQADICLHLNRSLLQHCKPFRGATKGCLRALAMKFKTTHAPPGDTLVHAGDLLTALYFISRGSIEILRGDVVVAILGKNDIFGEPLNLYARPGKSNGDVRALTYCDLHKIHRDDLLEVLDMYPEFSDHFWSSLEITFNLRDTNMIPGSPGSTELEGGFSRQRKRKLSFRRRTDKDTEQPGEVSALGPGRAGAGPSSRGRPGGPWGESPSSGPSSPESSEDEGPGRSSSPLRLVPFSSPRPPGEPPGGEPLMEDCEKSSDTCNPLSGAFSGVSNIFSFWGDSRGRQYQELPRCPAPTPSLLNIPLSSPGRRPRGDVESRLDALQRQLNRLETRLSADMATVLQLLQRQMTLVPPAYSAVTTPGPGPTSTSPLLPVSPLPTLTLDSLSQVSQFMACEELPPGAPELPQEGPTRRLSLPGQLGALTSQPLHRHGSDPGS
In general terms: hERG is a cardiac potassium channel; its block is linked to QT prolongation.

The next data set in a line: Microsomal stability. The format is in vitro ADME. As for the experimental part:
as §1

The subject of data set [2] is Male C57Bl6J mice. The experiment in a line: Amphetamine-induced hyperactivity test. The format is in vivo, mouse. The note with it: compound i.p. 30 min before AMPH 2 mg/kg i.p., vs vehicle. As for the experimental part: Male C57Bl6J mice were evaluated in an activity chamber apparatus for the amphetamine-induced hyperactivity test. […] To determine the effects of Compound 22 on amphetamine-induced hyperactivity, mice were placed in the activity chamber for a 30 min baseline period. At the end of that period, mice were removed from the chamber, dosed intraperitoneally with Compound 22 (1 mg/kg, 3 mg/kg, or 10 mg/kg) or vehicle and returned to the home cage. Thirty minutes after dosing, mice were dosed (ip) with amphetamine (AMPH, 2 mg/kg) and immediately placed into the activity chamber for a one-hour post-dose session.

The target of the next data set is GPR55 (Homo sapiens, UniProt Q9Y2T6). Nature of the data set: Off-target activity GPR55 (agonist, antagonist, PAM modes). The format is cell-based. As for the experimental part: as §1
GPR55, sequence (Q9Y2T6 whole entry, species assumed): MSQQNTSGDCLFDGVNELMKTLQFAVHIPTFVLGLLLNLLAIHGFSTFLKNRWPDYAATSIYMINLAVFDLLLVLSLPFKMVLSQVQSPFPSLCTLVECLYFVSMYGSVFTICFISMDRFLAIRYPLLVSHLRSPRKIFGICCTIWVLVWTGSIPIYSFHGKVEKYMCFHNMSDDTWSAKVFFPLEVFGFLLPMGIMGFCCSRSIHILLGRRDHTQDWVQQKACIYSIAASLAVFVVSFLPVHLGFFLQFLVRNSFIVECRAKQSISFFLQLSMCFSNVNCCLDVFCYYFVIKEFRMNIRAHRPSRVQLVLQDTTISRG
The nature of data set [3]: Plasma and brain pharmacokinetics in mice. In kind it is in vivo. The note with it: male, C57BL/6, mouse, 10 mg/kg. Here is the method:
Plasma and brain concentrations of Compounds 11, 22, 16, and 24 were determined by LC-MS/MS after IV and PO dosing in male C57BL/6 mice at 10 mg/kg. Data are shown in FIGS. 10A-10D for Compounds 11, 22, 16, and 24, respectively.
as §1

Data set [4] is described as follows: Mouse hepatocytes metabolic stability. The format is in vitro ADME. As for the experimental part: as §1
For data set [5], the system named is spontaneous DA transients in NAc. Nature of the data set: GRAB-DA fiber photometry, spontaneous DA transients. In kind it is in vivo, mouse. As for the experimental part:
For this study, a probe was implanted into the nucleus accumbens (NAc) (FIG. 11A). Following baseline measurements, mice were dosed with vehicle or Compound 22 (10 mg/kg, i.p) followed 40 min later by a single dose of AMPH (2 mg/kg, i.p.). Samples were collected for 2 hr post-dosing. Extracellular dopamine (DA) levels in the dialysate were quantified by HPLC with electrochemical detection (FIG. 11B). […] Compound 22 modulates both spontaneous and reward-related DA release. To confirm these findings in parallel experiments, GPCR-activation based-DA (GRAB-DA) was used, which is a human D2R-GFP chimera sensor that produces fluorescence changes reliably and with sub-second kinetics in response to extracellular DA concentration changes in behaving animals (Sun et al. Cell 2018; 174(2):481-96.e19). Mice were injected with an adeno-associated virus (AAV) carrying GRAB-DA into the (NAc) (FIG. 11C) and allowed to recover for −2 weeks before fiber photometry experiments were performed. In the first pilot experiment, baseline DA release were recorded for 5 min before mice (n=3) were injected with either Compound 22 or vehicle and then recording was continued for 45 min. The rate of spontaneous DA transients was compared in the pre-injection (0-5 min) vs post-injection (35-50 min) periods; there was a significant time x drug interaction: F(1,4)=11.91, P=0.026.

The next data set deals with human CB2R (Homo sapiens, UniProt P34972). The experiment in a line: PathHunter β-Arrestin assay, beta-arrestin recruitment. In kind it is cell-based. As for the experimental part: The assay was performed using the PathHunter β-Arrestin human CB2 cell line (catalog no. 93-0706C2) and using the PathHunter® β-Arrestin Assay for GPCR Cell Lines (source: DiscoveRx, Fremont, CA, USA), according to the manufacturer's protocol (https://www.discoverx.com/tools-resources/document-resource-library/documents/user-manual-pathhunter-% CE % B2-arrestin-assay-for-gpcr-c). Briefly, cells were seeded at a density of 10,000 cells per well in a 96-well plate and incubated overnight (16-18 h) in a humidified atmosphere at 37° C. and 5% C02. Agonist prepared in PBS was added and the assay plate incubated for 3 h in a humidified atmosphere at 37° C. and 5% C02. Working detection solution was added and the plate was incubated for 1 h in the dark at room temperature. Chemiluminescence was measured on an CLARIOstar plate reader (BMG LABTECH Inc., Cary, NC, USA).
human CB2R, sequence (P34972 whole entry): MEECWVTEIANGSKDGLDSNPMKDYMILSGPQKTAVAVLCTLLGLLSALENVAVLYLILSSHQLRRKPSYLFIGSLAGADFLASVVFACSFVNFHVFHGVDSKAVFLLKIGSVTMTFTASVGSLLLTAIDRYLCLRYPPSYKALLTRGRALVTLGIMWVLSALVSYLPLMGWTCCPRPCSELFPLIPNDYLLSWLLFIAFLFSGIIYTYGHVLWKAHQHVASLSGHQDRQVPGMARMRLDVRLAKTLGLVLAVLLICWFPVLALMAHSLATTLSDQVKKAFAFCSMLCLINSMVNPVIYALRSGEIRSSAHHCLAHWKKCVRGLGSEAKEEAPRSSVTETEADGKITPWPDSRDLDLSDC
(Arrestin recruitment assays detect the binding of arrestin to an activated receptor.)

The subject of the next data set is Caco-2. Nature of the data set: In vitro permeability Caco-2. In kind it is in vitro ADME. As for the experimental part:
as §1
(Passage across Caco-2 layers is used to estimate intestinal permeability.)

Another data set can be described thus: Aqueous solubility. The following applies: aqueous medium (not further specified). The format is physicochemical. As for the experimental part:
as §1

In brackets after ≈: the same amount, converted by molar mass. Entries after “also recorded” stand apart in the source; their conditions may differ.

`CC(C)(CO)c1cc(NC(=O)N2CCCN2c2ccc(C(F)(F)F)cc2)no1` [Compound 22, N-(5-(1-hydroxy-2-methylpropan-2-yl)isoxazol-3-yl)-2-(4-(trifluoromethyl)phenyl)pyrazolidine-1-carboxamide]: the melting point (as a rule, the temperature, or range, at which the solid turns liquid) lay within 142 to 146 °C. In the data set with DA response to reward, the “Ability to perform task and maximum reward-induced DA release” value is reported as “not a significant effect on the ability of mice to perform this task or the maximum reward-induced DA release”; the “DA response curve to sucrose reward” value is listed as “appeared to widen the DA response curve”. Besides, at human CB1R, the EC50 – broadly, the concentration giving half of the maximal effect – was > 10 µM. Moreover, the “Cytotoxicity (Neurons/Microglia)” value with Neurons/Microglia is recorded as “not toxic”. Further, the “Distance moved / spontaneous locomotor activity” value in the data set on Male C57Bl6J mice [1] is on record as “do not exhibit significantly different distance moved compared to the vehicle”. The IC50 – broadly, the concentration that gives 50% inhibition – against hERG was > 10 µM. Also, in “Microsomal stability”, the “Microsomal stability, clearance class” value is given as “Low clearance”. For the same compound, in the data set “Microsomal stability” (microsomes, read-out: Microsomal stability t ½), the half-life was found to be 2 h. Besides, the Amphetamine-induced hyperactivity result in the data set with Male C57Bl6J mice [2] is reported as “reduces the hyperactivity induced by AMPH compared to vehicle controls, with significant reduction at 10 mg/kg; also recorded: able to reduce hyperactivity at doses as low as 0.1 mg/kg, i.p”. Moreover, on GPR55, the EC50 is > 10 µM and the IC50 is > 10 µM. Besides, in data set [3] (in vivo, Via oral administration, 3 mice, at 24 h, read-out: Brain to plasma ratio), the Kp at 24 h was found to be 0.97. In addition, in [3] (plasma, Oral bioavailability), the bioavailability (in general, the share of a dose that reaches the circulation, judged against a reference dose that is usually intravenous) turned out to be 100%. Moreover, in data set [4], the “Mouse hepatocytes metabolic stability, clearance class” value is given as “Medium clearance”. Further, the half-life in data set [4] (read-out: Mouse hepatocytes metabolic stability t ½) is > 2 h. For the same compound, the “Shape of the spontaneous DA transients” value in [5] (before and after injection) is on record as “widening the curve”. The “Rate of spontaneous DA transients” value in [5] (pre-injection (0-5 min) vs post-injection (35-50 min), n=3) is reported as “reduced the rate of spontaneous transients”. The same compound had an EC50 at human CB2R of 0.578 µM. The “Activation of beta-arrestin pathway (in words)” value on human CB2R (hCB2, CP-55940 as control) is “weak beta-arrestin activity”. The In vitro permeability entry in the data set with Caco-2 is listed as “High”. The amount in solution in “Aqueous solubility” (solubility) came to 17.4 µg/mL (≈ 43.6 µM).
